Reference: ChEMBL document CHEMBL1154382, “Preliminary SAR analysis of novel antiproliferative N(6),5'-bis-ureidoadenosine derivatives” (2009)

Assays:
Type in all cases: functional
[1] = test system: CCRF-CEM; experiment: Antiproliferative activity against human CCRF-CEM cells at 10 uM assessed as cell growth inhibition relative to control; conditions: values are per cent of control
[2] = test system: HL-60(TB); experiment: Antiproliferative activity against human HL-60(TB) cells at 10 uM assessed as cell growth inhibition relative to control; conditions: values are per cent of control
[3] = test system: K562; experiment: Antiproliferative activity against human K562 cells at 10 uM assessed as cell growth inhibition relative to control; conditions: values are per cent of control
[4] = Antiproliferative activity against human […] cells at 10 uM assessed as cell growth inhibition relative to control; conditions: values are per cent of control
[5] = test system: A549; experiment: Antiproliferative activity against human A549 cells at 10 uM assessed as cell growth inhibition relative to control; conditions: values are per cent of control
[6] = test system: EKVX; experiment: Antiproliferative activity against human EKVX cells at 10 uM assessed as cell growth inhibition relative to control; conditions: values are per cent of control
[7] = test system: CCRF-CEM; experiment: Antiproliferative activity against human CCRF-CEM cells
[8] = test system: HL-60(TB); experiment: Antiproliferative activity against human HL-60(TB) cells
[9] = test system: K562; experiment: Antiproliferative activity against human K562 cells
[10] = test system: MOLT-4; experiment: Antiproliferative activity against human MOLT4 cells
[11] = Antiproliferative activity against human […] cells
[12] = test system: A549; experiment: Antiproliferative activity against human A549 cells
[13] = test system: EKVX; experiment: Antiproliferative activity against human EKVX cells
[14] = test system: HOP-92; experiment: Antiproliferative activity against human HOP92 cells
[15] = test system: NCI-H23; experiment: Antiproliferative activity against human NCI-H23 cells
[16] = test system: NCI-H322M; experiment: Antiproliferative activity against human NCI-H322M cells
[17] = test system: COLO 205; experiment: Antiproliferative activity against human COLO205 cells
[18] = test system: HCT-116; experiment: Antiproliferative activity against human HCT116 cells
[19] = test system: HCT-15; experiment: Antiproliferative activity against human HCT15 cells
[20] = test system: HT-29; experiment: Antiproliferative activity against human HT-29 cells
[21] = test system: KM12; experiment: Antiproliferative activity against human KM12 cells
[22] = test system: SW-620; experiment: Antiproliferative activity against human SW620 cells
[23] = test system: M14; experiment: Antiproliferative activity against human M14 cells
[24] = test system: SK-MEL-28; experiment: Antiproliferative activity against human SK-MEL-28 cells
[25] = test system: SK-MEL-5; experiment: Antiproliferative activity against human SK-MEL-5 cells
[26] = test system: SF-268; experiment: Antiproliferative activity against human SF268 cells
[27] = test system: SF-295; experiment: Antiproliferative activity against human SF295 cells
[28] = test system: OVCAR-3; experiment: Antiproliferative activity against human OVCAR-3 cells
[29] = test system: OVCAR-4; experiment: Antiproliferative activity against human OVCAR4 cells
[30] = test system: OVCAR-8; experiment: Antiproliferative activity against human OVCAR8 cells
[31] = test system: 786-0; experiment: Antiproliferative activity against human 786-0 cells
[32] = test system: ACHN; experiment: Antiproliferative activity against human ACHN cells
[33] = test system: CAKI-1; experiment: Antiproliferative activity against human Caki1 cells
[34] = test system: RXF 393; experiment: Antiproliferative activity against human RXF393 cells
[35] = test system: TK-10; experiment: Antiproliferative activity against human TK10 cells
[36] = test system: BT-549; experiment: Antiproliferative activity against human BT549 cells
[37] = test system: MDA-MB-231; experiment: Antiproliferative activity against human MDA-MB-231 cells
[38] = test system: MDA-MB-435; experiment: Antiproliferative activity against human MDA-MB-435 cells
[39] = test system: T47D; experiment: Antiproliferative activity against human T47D cells
[40] = test system: DU-145; experiment: Antiproliferative activity against human DU145 cells
[41] = test system: PC-3; experiment: Antiproliferative activity against human PC3 cells
[42] = test system: HOP-62; experiment: Antiproliferative activity against human HOP62 cells at 10 uM assessed as cell growth inhibition relative to control; conditions: values are per cent of control
[43] = test system: HOP-92; experiment: Antiproliferative activity against human HOP92 cells at 10 uM assessed as cell growth inhibition relative to control; conditions: values are per cent of control
[44] = test system: NCI-H322M; experiment: Antiproliferative activity against human NCI-H322M cells at 10 uM assessed as cell growth inhibition relative to control; conditions: values are per cent of control
[45] = test system: HCC 2998; experiment: Antiproliferative activity against human HCC2998 cells at 10 uM assessed as cell growth inhibition relative to control; conditions: values are per cent of control
[46] = test system: HT-29; experiment: Antiproliferative activity against human HT-29 cells at 10 uM assessed as cell growth inhibition relative to control; conditions: values are per cent of control
[47] = test system: KM12; experiment: Antiproliferative activity against human KM12 cells at 10 uM assessed as cell growth inhibition relative to control; conditions: values are per cent of control
[48] = test system: LOX IMVI; experiment: Antiproliferative activity against human LOXIMVI cells at 10 uM assessed as cell growth inhibition relative to control; conditions: values are per cent of control
[49] = test system: SK-MEL-2; experiment: Antiproliferative activity against human SK-MEL-2 cells at 10 uM assessed as cell growth inhibition relative to control; conditions: values are per cent of control
[50] = test system: SK-MEL-5; experiment: Antiproliferative activity against human SK-MEL-5 cells at 10 uM assessed as cell growth inhibition relative to control; conditions: values are per cent of control
[51] = test system: UACC-62; experiment: Antiproliferative activity against human UACC62 cells at 10 uM assessed as cell growth inhibition relative to control; conditions: values are per cent of control
[52] = test system: SF-295; experiment: Antiproliferative activity against human SF295 cells at 10 uM assessed as cell growth inhibition relative to control; conditions: values are per cent of control
[53] = test system: U-251; experiment: Antiproliferative activity against human U251 cells at 10 uM assessed as cell growth inhibition relative to control; conditions: values are per cent of control
[54] = test system: OVCAR-3; experiment: Antiproliferative activity against human OVCAR-3 cells at 10 uM assessed as cell growth inhibition relative to control; conditions: values are per cent of control
[55] = test system: OVCAR-5; experiment: Antiproliferative activity against human OVCAR5 cells at 10 uM assessed as cell growth inhibition relative to control; conditions: values are per cent of control
[56] = test system: OVCAR-8; experiment: Antiproliferative activity against human OVCAR8 cells at 10 uM assessed as cell growth inhibition relative to control; conditions: values are per cent of control
[57] = test system: SK-OV-3; experiment: Antiproliferative activity against human SKOV3 cells at 10 uM assessed as cell growth inhibition relative to control; conditions: values are per cent of control
[58] = test system: ACHN; experiment: Antiproliferative activity against human ACHN cells at 10 uM assessed as cell growth inhibition relative to control; conditions: values are per cent of control
[59] = test system: CAKI-1; experiment: Antiproliferative activity against human Caki1 cells at 10 uM assessed as cell growth inhibition relative to control; conditions: values are per cent of control
[60] = test system: UO-31; experiment: Antiproliferative activity against human UO31 cells at 10 uM assessed as cell growth inhibition relative to control; conditions: values are per cent of control
[61] = test system: BT-549; experiment: Antiproliferative activity against human BT549 cells at 10 uM assessed as cell growth inhibition relative to control; conditions: values are per cent of control
[62] = Antiproliferative activity against human Hs 578T cells at 10 uM assessed as cell growth inhibition relative to control; conditions: values are per cent of control
[63] = test system: MDA-MB-231; experiment: Antiproliferative activity against human MDA-MB-231 cells at 10 uM assessed as cell growth inhibition relative to control; conditions: values are per cent of control
[64] = test system: DU-145; experiment: Antiproliferative activity against human DU145 cells at 10 uM assessed as cell growth inhibition relative to control; conditions: values are per cent of control

CCOC(=O)C[C@H]1[C@@H](O[Si](C)(C)C(C)(C)C)[C@H](n2cnc3c(NC(=O)Nc4ccccc4)ncnc32)O[C@@H]1COC(=O)NC
growth, % of control at 10 µM [1]: 57%
growth, % of control at 10 µM [2]: 23%
growth, % of control at 10 µM [3]: 23%
growth, % of control at 10 µM [4]: 39%
growth, % of control at 10 µM [5]: 51%
growth, % of control at 10 µM [6]: 68%
GI50 [7]: 3.23 µM
GI50 [8]: 1.39 nM
GI50 [9]: 3.09 µM
GI50 [10]: 1990 nM
GI50 [11]: 2160 nM
GI50 [12]: 6.93 µM
GI50 [13]: 3.39 µM
GI50 [14]: 6.52 µM
GI50 [15]: 12.9 µM
GI50 [16]: 31.7 µM
GI50 [17]: 7.7 µM
GI50 [18]: 2330 nM
GI50 [19]: 11.7 µM
GI50 [20]: 3.97 µM
GI50 [21]: 3.21 µM
GI50 [22]: 4.59 µM
GI50 [23]: 6.37 µM
GI50 [24]: 7.77 µM
GI50 [25]: 5.7 µM
GI50 [26]: 5.06 µM
GI50 [27]: 2830 nM
GI50 [28]: 2420 nM
GI50 [29]: 10.7 µM
GI50 [30]: 10.3 µM
GI50 [31]: 7.94 µM
GI50 [32]: 5.92 µM
GI50 [33]: 3.72 µM
GI50 [34]: 2940 nM
GI50 [35]: 10.7 µM
GI50 [36]: 2070 nM
GI50 [37]: 17.5 µM
GI50 [38]: 3.26 µM
GI50 [39]: 4.95 µM
GI50 [40]: 5.21 µM
GI50 [41]: 2870 nM
growth, % of control at 10 µM [42]: 77%
growth, % of control at 10 µM [43]: 62%
growth, % of control at 10 µM [44]: 91%
growth, % of control at 10 µM [45]: -9%
growth, % of control at 10 µM [46]: 9%
growth, % of control at 10 µM [47]: 31%
growth, % of control at 10 µM [48]: 49%
growth, % of control at 10 µM [49]: 60%
growth, % of control at 10 µM [50]: 24%
growth, % of control at 10 µM [51]: 65%
growth, % of control at 10 µM [52]: 66%
growth, % of control at 10 µM [53]: 52%
growth, % of control at 10 µM [54]: 51%
growth, % of control at 10 µM [55]: 94%
growth, % of control at 10 µM [56]: 74%
growth, % of control at 10 µM [57]: 95%
growth, % of control at 10 µM [58]: 26%
growth, % of control at 10 µM [59]: 61%
growth, % of control at 10 µM [60]: 42%
growth, % of control at 10 µM [61]: 65%
growth, % of control at 10 µM [62]: 57%
growth, % of control at 10 µM [63]: 72%
growth, % of control at 10 µM [64]: 59%
